{"source": "patent US9149472B2", "about": "“Controlled release compositions for treatment of cognitive, emotional and mental ailments and disorders” (priority 2004, dated 2015)", "key": {"[1]": {"system": "mild permanent cognitive and short term memory loss", "experiment": "Case study Patient 1: mild permanent cognitive and short term memory loss after mold exposure", "format": "in vivo, human", "method": "A case study of a patient having a long history of allergies was performed.\nA typical dosage of the Singulair® is about 10 mg.\nA 10 mg tablet can be taken orally upon awakening. […] In a typical implementation, the patient can take another 10 mg dose in about two hours after the initial dose. […] Similar booster dosages can be taken at 3-4 hour intervals throughout the day. […] The Singulair® product typically recommends 10 mg per day.\nIn another embodiment, a zafirlukast product such as Accolate® and Vanticon® can be implemented. In one implementation, a 20 mg oral dose can be taken upon awakening followed by a 10 mg dose after 2 hours and a 10 mg repeated dose in 4 hours and a final dose of 20 mg another 4 hours later. […] The Accolate® recommended dosage is 20 mg in the morning and evening."}, "[2]": {"system": "decreased concentration and focus, memory recall and forgetfulness issues", "experiment": "Case study Patient 4: person with decreased concentration, focus and memory recall, plus depression and anxiety", "format": "in vivo, human", "conditions": "10 mg in the morning along with an antidepressant, additional 10 mg about every 2 hours during waking hours", "excerpt": "A person with symptoms of decreased concentration and focus along with memory recall and forgetfulness issues. The patient was also diagnosed with depression and anxiety."}, "[3]": {"system": "symptoms of cognitive ailments", "experiment": "Case study Patient 6: person with cognitive ailments, single morning dose", "format": "in vivo, human"}, "[4]": {"system": "symptoms of cognitive ailments", "conditions": "Patient 3"}, "[5]": {"system": "memory loss, cognitive, emotional ailments", "quoted_text": "In most cases, treatment of these ailments requires multiple dosages of 5 mg to 20 mg over the course of the day."}, "[6]": {"system": "mild symptoms of forgetfulness", "experiment": "Case study Patient 2: person with mild symptoms of forgetfulness"}, "[7]": {"system": "forgetfulness and problems with word recall", "experiment": "Case study Patient 5: person with forgetfulness and word recall problems"}}}
{"smiles": "COc1cc(C(=O)NS(=O)(=O)c2ccccc2C)ccc1Cc1cn(C)c2ccc(NC(=O)OC3CCCC3)cc12", "note": "[Accolate®, zafirlukast]", "values": [{"measurement": "focus and disposition", "setting": "[1]; Patient 1, oral 20 mg upon awakening, 10 mg after 2 hours, 10 mg after 4 hours, 20 mg 4 hours later, highest daily dosage 80 mg", "result": "heightened focus but results in a less “wired” disposition"}]}
{"smiles": "CC(C)(O)c1ccccc1CC[C@@H](SCC1(CC(=O)[O-])CC1)c1cccc(/C=C/c2ccc3ccc(Cl)cc3n2)c1.[Na+]", "note": "[montelukast sodium]", "values": [{"measurement": "time to relief / marked improvement after the initial higher dosage", "setting": "[1]; Patient 1, 20-30 mg upon waking", "result": "30 to 45", "unit": "min"}, {"measurement": "apathy", "setting": "[1]; Patient 1, about 20-30 mg", "result": "marked decrease in apathy"}, {"measurement": "sense of humor", "setting": "[1]; Patient 1, about 20-30 mg", "result": "increase in sense of humor"}, {"measurement": "cognitive, mental and emotional improvement", "setting": "[1]; Patient 1, about 20-30 mg (2-3 times the typical dosage)", "result": "marked cognitive, mental and emotional improvement"}, {"measurement": "effect of additional doses on relief", "setting": "[1]; Patient 1, additional 10 mg dose every four hours", "result": "continues the relief"}, {"measurement": "time to return of symptoms after ceasing the dosage", "setting": "[1]; Patient 1, after the dosage is ceased", "result": "≤ 24", "unit": "h"}, {"measurement": "cognitive effect when taking the medication", "setting": "[1]; Patient 1, as prescribed for allergies, typical dosage about 10 mg", "result": "cognitive improvement"}, {"measurement": "mental state under mega-dosing", "setting": "[1]; booster dosages of 5 mg about every 2 hours, maximum 40 mg in one day", "result": "very talkative mental states and highly sensitive mental alertness"}, {"measurement": "symptoms", "setting": "[2]", "result": "significant improvement in symptoms"}, {"measurement": "mental clarity and mood", "setting": "[3]; 50 mg once upon rising in the morning", "result": "improved mental clarity in the morning and better mood throughout the day"}, {"measurement": "mental clarity and mood", "setting": "[3]; 80 mg once upon rising in the morning", "result": "improved mental clarity in the morning and better mood throughout the day"}, {"measurement": "side effects", "setting": "[4]", "result": "No side effects noted"}, {"measurement": "symptoms while on medication", "setting": "[4]; 10 mg in the morning, additional 10 mg about every 2 hours during waking hours", "result": "significant improvement in symptoms"}, {"measurement": "mood with large immediate release dosages", "setting": "[5]; immediate release dosages larger than 30 mg", "result": "improved mood"}, {"measurement": "effect on ailments (overall finding)", "setting": "[5]; in most cases multiple dosages of 5 mg to 20 mg over the day", "result": "alleviate and treat memory loss, forgetfulness, apathy, emotional and cognitive ailments, and depression"}, {"measurement": "side effects", "setting": "[6]", "result": "No side effects reported"}, {"measurement": "time to improvement in symptoms after onset of medication use", "setting": "[6]; 20 mg in the morning, additional 10-20 mg about every 2 hours during waking hours", "result": "≤ 24", "unit": "h"}, {"measurement": "symptoms after stopping second course", "setting": "[6]; after the five-day course was stopped", "result": "the symptoms returned again"}, {"measurement": "time to recurrence of symptoms after discontinuation", "setting": "[6]; stopped after over a week", "result": "≤ 24", "unit": "h"}, {"measurement": "symptoms during second course", "setting": "[6]; two weeks later, same regimen for five days", "result": "marked improvement in symptoms"}, {"measurement": "other side effects", "setting": "[7]", "result": "No other side effects noted"}, {"measurement": "time to improvement after initiation of the protocol", "setting": "[7]", "result": "≤ 24", "unit": "h"}, {"measurement": "memory and recall issues", "setting": "[7]; 10 mg in the morning, additional 10 mg about every 2 hours during waking hours, five days", "result": "significant improvement in memory and recall issues"}, {"measurement": "sleep (side effect) at 6 doses daily", "setting": "[7]; 6 doses of 10 mg daily", "result": "difficulty sleeping"}, {"measurement": "time to recurrence of symptoms after discontinuation", "setting": "[7]; discontinued after five days", "result": "24 to 48", "unit": "h"}, {"measurement": "sleep (side effect) at five doses daily", "setting": "[7]; schedule reduced to five doses daily", "result": "the problem was resolved"}]}
